Experimental data taken from patent US20240174618A1, “SUBSTITUTED (2-HETEROARYLOXYPHENYL)SULFONATES, SALTS THEREOF AND THEIR USE AS HERBICIDAL AGENTS” (Bayer Aktiengesellschaft, priority 2021, published 2024).

Legend:
Type in all cases: in vivo
[1] = system: Kochia scoparia (KCHSC); experiment: A. Herbicidal pre-emergence efficacy, KCHSC; settings: pre-emergence
Description: (§1) Seeds of mono- and dicotyledonous weed plants were placed in plastic pots in sandy loam soil (doubly sown with one species each of mono- or dicotyledonous weed plants per pot) and covered with soil. The compounds of the invention, formulated in the form of wettable powders (WP) or as emulsion concentrates (EC), were then applied onto the surface of the covering soil as aqueous suspension or emulsion with addition of 0.5% additive at a water application rate of 600 liters per hectare (converted). After the treatment, the pots were placed in a greenhouse and kept under good growth conditions for the test plants. After about 3 weeks, the efficacy of the preparations was scored visually in comparison with untreated controls as percentages.
(§2) For example, • 100% efficacy=plants have died, • 0% efficacy=like untreated control plants.
(§3) Tables A1a to A12c below show the effects of selected compounds of the general formula (I) according to table 1 on various harmful plants at an application rate corresponding to 1280 g/ha or less, which were obtained by the experimental procedure mentioned above.

[2] = system: Stellaria media (STEME); experiment: A. Herbicidal pre-emergence efficacy, STEME
Description: as §1, §2, §3

[3] = system: Echinochloa crus-galli (ECHCG); experiment: B. Herbicidal post-emergence efficacy, ECHCG; settings: 1280 g/ha, rated visually after about 3 weeks
Description: (§4) Seeds of mono- and dicotyledonous weed plants were placed in plastic pots in sandy loam soil (doubly sown with in each case one species of mono- or dicotyledonous weed plants per pot), covered with soil and cultivated in a greenhouse under controlled growth conditions. 2 to 3 weeks after sowing, the test plants were treated at the one-leaf stage. The compounds of the invention, formulated in the form of wettable powders (WP) or as emulsion concentrates (EC), were applied onto the green parts of the plants as aqueous suspension or emulsion with addition of 0.5% additive at a water application rate of 600 liters per hectare (converted). After the test plants had been kept in the greenhouse under optimum growth conditions for about 3 weeks, the activity of the preparations was rated visually in comparison to untreated controls.
(§5) For example, • 100% efficacy=plants have died, • 0% efficacy=like untreated control plants
(§6) Tables B1a to B12c below show the effects of selected inventive compounds of the general formula (I) according to table 1 on various harmful plants at an application rate corresponding to 1280 g/ha or less, which were obtained by the experimental procedure mentioned above.

[4] = system: Amaranthus retroflexus (AMARE); experiment: B. Herbicidal post-emergence efficacy, AMARE
Description: as §4, §5, §6

[5] = system: Stellaria media (STEME); experiment: B. Herbicidal post-emergence efficacy, STEME
Description: as §4, §5, §6

[6] = system: Abutilon theophrasti (ABUTH); experiment: A. Herbicidal pre-emergence efficacy, ABUTH; settings: scored visually after about 3 weeks vs untreated controls
Description: as §1, §2, §3

[7] = system: Abutilon theophrasti (ABUTH); experiment: B. Herbicidal post-emergence efficacy, ABUTH; settings: rated visually after about 3 weeks
Description: as §4, §5, §6

[8] = system: Amaranthus retroflexus (AMARE); experiment: A. Herbicidal pre-emergence efficacy, AMARE
Description: as §1, §2, §3

[9] = system: Setaria viridis (SETVI); experiment: A. Herbicidal pre-emergence efficacy, SETVI
Description: as §1, §2, §3

[10] = system: Echinochloa crus-galli (ECHCG); experiment: A. Herbicidal pre-emergence efficacy, ECHCG; settings: scored visually after about 3 weeks vs untreated controls
Description: as §1, §2, §3

[11] = system: Veronica persica (VERPE); experiment: B. Herbicidal post-emergence efficacy, VERPE
Description: as §4, §5, §6

[12] = system: Digitaria sanguinalis (DIGSA); experiment: A. Herbicidal pre-emergence efficacy, DIGSA; settings: scored visually after about 3 weeks vs untreated controls
Description: as §1, §2, §3

[13] = system: Poa annua (POAAN); experiment: A. Herbicidal pre-emergence efficacy, POAAN; settings: dosage 1280 g/ha
Description: as §1, §2, §3

[14] = system: Poa annua (POAAN); experiment: B. Herbicidal post-emergence efficacy, POAAN; settings: 1280 g/ha
Description: as §4, §5, §6

[15] = system: Kochia scoparia (KCHSC); experiment: B. Herbicidal post-emergence efficacy, KCHSC; settings: for Post-emergence efficacy against KCHSC in %: rated visually after about 3 weeks; for Post-emergence efficacy against KCHSC: 1280 g/ha
Description: as §4, §5, §6

[16] = system: Veronica persica (VERPE); experiment: A. Herbicidal pre-emergence efficacy, VERPE
Description: as §1, §2, §3

[17] = system: Lolium rigidum (LOLRI); experiment: A. Herbicidal pre-emergence efficacy, LOLRI; settings: dosage 1280 g/ha
Description: as §1, §2, §3

[18] = system: Matricaria inodora (MATIN); experiment: A. Herbicidal pre-emergence efficacy, MATIN; settings: pre-emergence, dosage 1280 g/ha
Description: as §1, §2, §3

Compound | Pre-emergence efficacy against KCHSC ([1]; dosage 1280 g/ha) [%] | Pre-emergence efficacy against STEME ([2]; dosage 320 g/ha) [%] | Pre-emergence efficacy against STEME ([2]; dosage 1280 g/ha) [%] | Post-emergence efficacy against ECHCG in % [3] [%] | Post-emergence efficacy against AMARE ([4]; 320 g/ha) [%] | Post-emergence efficacy against AMARE ([4]; 1280 g/ha) [%] | Post-emergence efficacy against STEME ([5]; 80 g/ha) [%] | Post-emergence efficacy against STEME ([5]; 320 g/ha) [%] | Post-emergence efficacy against STEME ([5]; 1280 g/ha) [%] | Pre-emergence efficacy against ABUTH ([6]; 1280 g/ha) [%] | Post-emergence efficacy against ABUTH in % ([7]; 1280 g/ha) [%] | Pre-emergence efficacy against AMARE in % ([8]; 320 g/ha) [%] | Pre-emergence efficacy against AMARE in % ([8]; 1280 g/ha) [%] | Pre-emergence efficacy against SETVI ([9]; dosage 1280 g/ha) [%] | Post-emergence efficacy against VERPE ([11]; 320 g/ha) [%] | Post-emergence efficacy against VERPE ([11]; 1280 g/ha) [%] | Pre-emergence efficacy against POAAN [13] [%] | Post-emergence efficacy against POAAN [14] [%] | Post-emergence efficacy against KCHSC in % ([15]; 320 g/ha) [%] | Post-emergence efficacy against KCHSC [15] [%] | also measured
O=S(=O)(Oc1ccccc1Oc1ncc(Cl)cn1)C1CCCC1 [Example I-19] | 90 | 100 | 100 | 90 | 90 | 100 | 90 | 100 | 100 | 100 | 90 | 100 | 100 | 100 | 90 | 100 | 90 | 90 | 90 | 100 | Pre-emergence efficacy against KCHSC ([1]; dosage 320 g/ha): 90%; Pre-emergence efficacy against ABUTH ([6]; 320 g/ha): 90%; Post-emergence efficacy against ABUTH in % ([7]; 320 g/ha): 90%; Pre-emergence efficacy against AMARE in % ([8]; 80 g/ha): 90%; Pre-emergence efficacy against SETVI ([9]; dosage 320 g/ha): 90%; Pre-emergence efficacy against ECHCG ([10]; 1280 g/ha): 90%; Post-emergence efficacy against VERPE ([11]; 80 g/ha): 90%; Pre-emergence efficacy against DIGSA ([12]; 80 g/ha): 100%; Pre-emergence efficacy against DIGSA ([12]; 320 g/ha): 100%; Pre-emergence efficacy against DIGSA ([12]; 1280 g/ha): 100%
O=S(=O)(CCC(F)=C(F)F)Oc1c(Br)cccc1Oc1ncc(Cl)cn1 [Example I-72] | 90 | 90 | 100 | 100 | 100 | 100 | 90 | 100 | 100 | 90 | 100 | 90 | 100 | 100 | 100 | 100 | 100 | 90 | 100 | 100 | Post-emergence efficacy against AMARE ([4]; 80 g/ha): 100%; Pre-emergence efficacy against VERPE in % ([16]; 320 g/ha): 90%; Pre-emergence efficacy against VERPE in % ([16]; 1280 g/ha): 90%; Post-emergence efficacy against ABUTH in % ([7]; 320 g/ha): 90%; Pre-emergence efficacy against SETVI ([9]; dosage 320 g/ha): 90%; Post-emergence efficacy against VERPE ([11]; 80 g/ha): 100%; Pre-emergence efficacy against LOLRI [17]: 90%; Pre-emergence efficacy against DIGSA ([12]; 320 g/ha): 90%; Pre-emergence efficacy against DIGSA ([12]; 1280 g/ha): 100%; Post-emergence efficacy against KCHSC in % ([15]; 80 g/ha): 90%
CC(C)S(=O)(=O)Oc1ccccc1Oc1ncc(Cl)cn1 [Example I-18] | – | – | 90 | 90 | 100 | 100 | – | – | 90 | 100 | 90 | 100 | 100 | 90 | 90 | 90 | 90 | 90 | 100 | 100 | Pre-emergence efficacy against ABUTH ([6]; 320 g/ha): 90%; Pre-emergence efficacy against VERPE in % ([16]; 320 g/ha): 90%; Pre-emergence efficacy against VERPE in % ([16]; 1280 g/ha): 100%; Pre-emergence efficacy against ECHCG ([10]; 320 g/ha): 90%; Pre-emergence efficacy against ECHCG ([10]; 1280 g/ha): 100%; Pre-emergence efficacy against MATIN [18]: 90%; Pre-emergence efficacy against LOLRI [17]: 90%
